Source: US8513421B2, “Substituted hydroxamic acids and uses thereof” (Millennium Pharmaceuticals, Inc., priority 2010, dated 2013)

Each compound was assayed against T1, purified human HDAC6 (Homo sapiens, UniProt Q9UBN7) (assay: HDAC6 Enzyme Assay). Settings: purified human HDAC6, substrate Ac-Arg-Gly-Lys(Ac)-AMC, 1 hour at 30° C.
T1 construct: purchased BPS Bioscience 5006
T1 sequence (Q9UBN7 1-1215): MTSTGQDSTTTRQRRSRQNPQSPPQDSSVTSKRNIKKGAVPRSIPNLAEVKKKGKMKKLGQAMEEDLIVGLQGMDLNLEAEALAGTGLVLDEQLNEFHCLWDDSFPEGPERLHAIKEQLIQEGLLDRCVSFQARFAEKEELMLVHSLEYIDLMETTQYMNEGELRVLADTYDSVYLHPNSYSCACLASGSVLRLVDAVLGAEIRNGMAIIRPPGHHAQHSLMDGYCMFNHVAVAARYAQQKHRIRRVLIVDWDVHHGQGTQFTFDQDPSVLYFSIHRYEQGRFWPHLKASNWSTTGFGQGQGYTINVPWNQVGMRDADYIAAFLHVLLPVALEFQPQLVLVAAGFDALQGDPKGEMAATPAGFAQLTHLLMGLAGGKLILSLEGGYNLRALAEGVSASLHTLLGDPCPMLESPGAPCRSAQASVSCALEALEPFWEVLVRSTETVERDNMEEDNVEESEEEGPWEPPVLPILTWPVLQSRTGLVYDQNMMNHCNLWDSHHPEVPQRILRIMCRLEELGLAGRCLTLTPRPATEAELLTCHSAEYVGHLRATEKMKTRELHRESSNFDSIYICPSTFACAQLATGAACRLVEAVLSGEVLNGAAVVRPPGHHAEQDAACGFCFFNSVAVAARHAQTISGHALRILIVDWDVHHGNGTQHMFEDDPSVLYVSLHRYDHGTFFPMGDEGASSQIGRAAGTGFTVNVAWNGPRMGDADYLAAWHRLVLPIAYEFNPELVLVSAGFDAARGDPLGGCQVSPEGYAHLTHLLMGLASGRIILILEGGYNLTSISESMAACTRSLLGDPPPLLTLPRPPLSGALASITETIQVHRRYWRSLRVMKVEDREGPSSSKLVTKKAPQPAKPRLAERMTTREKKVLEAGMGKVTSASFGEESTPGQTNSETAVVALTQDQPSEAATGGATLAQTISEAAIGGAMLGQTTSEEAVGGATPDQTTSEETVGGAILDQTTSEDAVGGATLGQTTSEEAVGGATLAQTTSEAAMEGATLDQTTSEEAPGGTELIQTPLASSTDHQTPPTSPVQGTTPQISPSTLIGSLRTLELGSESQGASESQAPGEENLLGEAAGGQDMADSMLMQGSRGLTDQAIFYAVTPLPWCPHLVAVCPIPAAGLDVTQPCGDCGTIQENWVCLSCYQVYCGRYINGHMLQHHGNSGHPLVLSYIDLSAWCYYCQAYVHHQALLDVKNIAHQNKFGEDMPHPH
Type: biochemical
Description: To measure the inhibition of HDAC6 activity, purified human HDAC6 (BPS Bioscience; Cat. No. 5006) is incubated with substrate Ac-Arg-Gly-Lys(Ac)-AMC peptide (Bachem Biosciences; Cat. No. I-1925) for 1 hour at 30° C. in the presence of test compounds or vehicle DMSO control. The reaction is stopped with the HDAC inhibitor trichostatin A (Sigma; Cat. No. T8552) and the amount of Arg-Gly-Lys-AMC generated is quantitated by digestion with trypsin (Sigma; Cat. No. T1426) and subsequent measurement of the amount of AMC released using a fluorescent plate reader (Pherastar; BMG Technologies) set at Ex 340 nm and Em 460 nm. Concentration response curves are generated by calculating the fluorescence increase in test compound-treated samples relative to DMSO-treated controls, and enzyme inhibition (IC50) values are determined from those curves.

Row | Structure (SMILES) | IC50
1 | CN(C)Cc1cc(C(=O)Nc2ccc3ncc(C(=O)NO)cc3c2)cc(C(F)(F)F)c1 [Compound I-1, 6-{[3-[(dimethylamino)methyl]-5-(trifluoromethyl)benzoyl]amino}-N-hydroxyquinoline-3-carboxamide] | 100 to 500 nM
2 | O=C(NO)c1cnc2ccc(Oc3cccc(Cl)c3)cc2c1 [Compound I-2, 6-(3-chlorophenoxy)-N-hydroxyquinoline-3-carboxamide] | 100 to 500 nM
3 | COc1ccc2cc(C(=O)NO)cnc2c1 [Compound I-3, N-hydroxy-7-methoxyquinoline-3-carboxamide] | > 500 nM
4 | O=C1CCc2c(Oc3ccc4cc(C(=O)NO)cnc4c3)ccnc2N1 [Compound I-4, N-hydroxy-7-[(7-oxo-5,6,7,8-tetrahydro-1,8-naphthyridin-4-yl)oxy]quinoline-3-carboxamide] | 100 to 500 nM
5 | COc1ccc(C(=O)Nc2ccc3cc(C(=O)NO)cnc3c2)cc1 [Compound I-5, N-hydroxy-7-[(4-methoxybenzoyl)amino]quinoline-3-carboxamide] | 100 to 500 nM
6 | O=C(NO)c1cnc2ccc(NC(=O)C3CC3)cc2c1 [Compound I-6, 6-[(cyclopropylcarbonyl)amino]-N-hydroxyquinoline-3-carboxamide] | < 100 nM
7 | O=C(NO)c1cnc2ccc(Nc3ccccc3)cc2c1 [Compound I-7, 6-anilino-N-hydroxyquinoline-3-carboxamide] | 100 to 500 nM
8 | Cn1cc(-c2cc(C(=O)Nc3ccc4ncc(C(=O)NO)cc4c3)cc(C(F)(F)F)c2)cn1 [Compound I-8, N-hydroxy-6-{[3-(1-methyl-1H-pyrazol-4-yl)-5-(trifluoromethyl)benzoyl]amino}quinoline-3-carboxamide] | < 100 nM
9 | O=C(NO)c1cnc2ccc(Nc3ccncc3)cc2c1 [Compound I-9, N-hydroxy-6-(pyridin-4-ylamino)quinoline-3-carboxamide] | 100 to 500 nM
10 | CC(C)(C)OC(=O)Nc1ccc2cc(C(=O)NO)cnc2c1 [Compound I-10, tert-butyl {3-[(hydroxyamino)carbonyl]quinolin-7-yl}carbamate] | < 100 nM
11 | O=C(NO)c1cnc2ccc(-c3ccncc3)cc2c1 [Compound I-11, N-hydroxy-6-pyridin-4-ylquinoline-3-carboxamide] | < 100 nM
12 | O=C(NO)c1cnc2ccc(Oc3ccccc3)cc2c1 [Compound I-12, N-hydroxy-6-phenoxyquinoline-3-carboxamide] | 100 to 500 nM
13 | O=C(NO)c1cnc2ccc(NS(=O)(=O)c3ccccc3)cc2c1 [Compound I-13, N-hydroxy-6-[(phenylsulfonyl)amino]quinoline-3-carboxamide] | < 100 nM
14 | O=C(Nc1ccccc1)Nc1ccc2ncc(C(=O)NO)cc2c1 [Compound I-14, 6-[(anilinocarbonyl)amino]-N-hydroxyquinoline-3-carboxamide] | < 100 nM
15 | O=C(NO)c1cnc2cc(Oc3cccc(Cl)c3)ccc2c1 [Compound I-15, 7-(3-chlorophenoxy)-N-hydroxyquinoline-3-carboxamide] | 100 to 500 nM
16 | O=C(NO)c1cnc2cc(Oc3ccc(Cl)cc3)ccc2c1 [Compound I-16, 7-(4-chlorophenoxy)-N-hydroxyquinoline-3-carboxamide] | 100 to 500 nM
17 | O=C(NO)c1cnc2ccc(NCc3ccccc3)cc2c1 [Compound I-17, 6-(benzylamino)-N-hydroxyquinoline-3-carboxamide] | < 100 nM

Row | Structure (SMILES) | IC50
18 | O=C(NO)c1cnc2ccc(CCc3ccccc3)cc2c1 [Compound I-18, N-hydroxy-6-(2-phenylethyl)quinoline-3-carboxamide] | < 100 nM
19 | COc1ccc2ncc(C(=O)NO)cc2c1 [Compound I-19, N-hydroxy-6-methoxyquinoline-3-carboxamide] | > 500 nM
20 | O=C(NO)c1cnc2ccc(NC(=O)c3ccccc3)cc2c1 [Compound I-20, 6-(benzoylamino)-N-hydroxyquinoline-3-carboxamide] | < 100 nM
21 | CC(C)(C)OC(=O)Nc1ccc2ncc(C(=O)NO)cc2c1 [Compound I-21, tert-butyl {3-[(hydroxyamino)carbonyl]quinolin-6-yl}carbamate] | < 100 nM
22 | COc1ccc(C(=O)Nc2ccc3ncc(C(=O)NO)cc3c2)cc1 [Compound I-22, N-hydroxy-6-[(4-methoxybenzoyl)amino]quinoline-3-carboxamide] | < 100 nM
23 | O=C(NO)c1cnc2cc(Oc3ccnc(NC(=O)C4CC4)c3)ccc2c1 [Compound I-23, 7-({2-[(cyclopropylcarbonyl)amino]pyridin-4-yl}oxy)-N-hydroxyquinoline-3-carboxamide] | 100 to 500 nM
24 | O=C(NO)c1cnc2cc(Nc3ccccc3)ccc2c1 [Compound I-24, 7-anilino-N-hydroxyquinoline-3-carboxamide] | < 100 nM
25 | O=C(NO)c1cnc2cc(-c3ccc(Cl)cc3)ccc2c1 [Compound I-25, 7-(4-chlorophenyl)-N-hydroxyquinoline-3-carboxamide] | 100 to 500 nM
26 | O=C1CCc2c(Oc3ccc4ncc(C(=O)NO)cc4c3)ccnc2N1 [Compound I-26, N-hydroxy-6-[(7-oxo-5,6,7,8-tetrahydro-1,8-naphthyridin-4-yl)oxy]quinoline-3-carboxamide] | 100 to 500 nM
27 | O=C(NO)c1cnc2ccc(-c3ccc(Cl)cc3)cc2c1 [Compound I-27, 6-(4-chlorophenyl)-N-hydroxyquinoline-3-carboxamide] | 100 to 500 nM
28 | O=C(NO)c1cnc2cc(Nc3ccncc3)ccc2c1 [Compound I-28, N-hydroxy-7-(pyridin-4-ylamino)quinoline-3-carboxamide] | < 100 nM
29 | O=C(NO)c1cnc2ccc(Oc3ccc(Cl)cc3)cc2c1 [Compound I-29, 6-(4-chlorophenoxy)-N-hydroxyquinoline-3-carboxamide] | 100 to 500 nM
30 | O=C(NO)c1cnc2ccc(Nc3ccc(Cl)cc3)cc2c1 [Compound I-30, 6-[(4-chlorophenyl)amino]-N-hydroxyquinoline-3-carboxamide] | < 100 nM
31 | O=C(NO)c1cnc2ccc(Oc3ccnc(NC(=O)C4CC4)c3)cc2c1 [Compound I-31, 6-({2-[(cyclopropylcarbonyl)amino]pyridin-4-yl}oxy)-N-hydroxyquinoline-3-carboxamide] | < 100 nM
32 | O=C(NO)c1cnc2ccc(Oc3ccncc3)cc2c1 [Compound I-32, N-hydroxy-6-(pyridin-4-yloxy)quinoline-3-carboxamide] | 100 to 500 nM
33 | O=C(NO)c1cnc2cc(-c3ccncc3)ccc2c1 [Compound I-33, N-hydroxy-7-pyridin-4-ylquinoline-3-carboxamide] | 100 to 500 nM
